# According to PubChem BioAssay (NCI):
#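 48-hour exposure; five concentrations; linearly interpolated endpoints. Here, GI50 denotes the concentration required for 50% inhibition of growth. TGI is the concentration that stops growth completely.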
# Columns and labels:
# Experiment in all cases: NCI-60 cell line screen, 48 h
# EKVX NSCLC = system: EKVX NSCLC
# HCT-116 colon = system: HCT-116 colon
# HT29 colon = system: HT29 colon
# M14 melanoma = system: M14 melanoma
# MDA-MB-231 breast = system: MDA-MB-231 breast
# NCI-H460 lung = system: NCI-H460 lung
# SF-268 CNS = system: SF-268 CNS
# SK-MEL-28 melanoma = system: SK-MEL-28 melanoma
# SR leukemia = system: SR leukemia
# U251 CNS = system: U251 CNS
SMILES,GI50 (EKVX NSCLC),TGI (EKVX NSCLC),GI50 (HCT-116 colon),TGI (HCT-116 colon),GI50 (HT29 colon),TGI (HT29 colon),GI50 (M14 melanoma),TGI (M14 melanoma),GI50 (MDA-MB-231 breast),TGI (MDA-MB-231 breast),GI50 (NCI-H460 lung),TGI (NCI-H460 lung),GI50 (SF-268 CNS),TGI (SF-268 CNS),GI50 (SK-MEL-28 melanoma),TGI (SK-MEL-28 melanoma),GI50 (SR leukemia),TGI (SR leukemia),GI50 (U251 CNS),TGI (U251 CNS)
Nc1nccc(-c2c(-c3ccc(F)cc3)ncn2CCCN2CCOCC2)n1,> 25 µM,> 25 µM,> 25 µM,> 25 µM,> 25 µM,> 25 µM,> 25 µM,> 25 µM,> 25 µM,> 25 µM,> 25 µM,> 25 µM,> 25 µM,> 25 µM,> 25 µM,> 25 µM,> 25 µM,> 25 µM,> 25 µM,> 25 µM
COc1cc([N+](=O)[O-])ccc1NC(=O)C(F)(F)F,–,> 100 µM,–,> 100 µM,–,> 100 µM,–,> 100 µM,–,> 100 µM,–,> 100 µM,–,> 100 µM,–,> 100 µM,–,> 100 µM,–,> 100 µM
O=C(O)C(Sc1ccc(Cl)cc1)Sc1ccc(Cl)cc1,–,> 100 µM,–,> 100 µM,–,> 100 µM,–,> 100 µM,–,> 100 µM,–,> 100 µM,–,> 100 µM,–,> 100 µM,–,> 100 µM,–,> 100 µM
COc1ccc(C2CC(=O)c3c(OC)cc(OC)cc3O2)cc1 (stereo not drawn),> 100 µM,> 100 µM,> 100 µM,> 100 µM,> 100 µM,> 100 µM,–,–,> 100 µM,> 100 µM,> 100 µM,> 100 µM,> 100 µM,> 100 µM,> 100 µM,> 100 µM,> 100 µM,> 100 µM,> 100 µM,> 100 µM
COc1cc2c3c(n(CCCBr)c(=O)c2cc1OC)-c1ccc(NC(C)=O)cc1C3=O,47.8 µM,> 100 µM,2.58 µM,18.1 µM,2.99 µM,> 100 µM,4.33 µM,20.6 µM,25.8 µM,> 100 µM,0.506 µM,7.31 µM,2.11 µM,> 100 µM,40.5 µM,> 100 µM,0.574 µM,12.6 µM,1.17 µM,44.1 µM
Cc1c2c(nn1-c1ccc(S(=O)(=O)/N=C3\SCC(=O)N3C(=O)c3ccccc3)cc1)-c1ccccc1CC2,40.5 µM,90.7 µM,26.4 µM,58.8 µM,63.5 µM,> 100 µM,22.9 µM,47.1 µM,24 µM,58.7 µM,47.5 µM,> 100 µM,44.6 µM,> 100 µM,52.5 µM,> 100 µM,69.9 µM,> 100 µM,23.3 µM,62.4 µM
CC[C@H](C)[C@H](NC(=O)[C@H]1CCCCN1C)C(=O)N(C)[C@H](CCc1nc(C(=O)N[C@@H](Cc2ccccc2)C[C@H](C)C(=O)OC)cs1)C(C)C,1.11 µM,> 25 µM,0.118 µM,> 5.35 µM,0.202 µM,3.06 µM,0.215 µM,–,0.36 µM,1.8 µM,0.395 µM,> 10.3 µM,1.03 µM,> 25 µM,2.06 µM,> 25 µM,0.0726 µM,10.8 µM,0.345 µM,> 25 µM
COC(=O)[C@]12CCC(C)(C)C[C@H]1C1=CC[C@@H]3[C@@]4(C)C/C(=C/c5cccnc5)C(=O)C(C)(C)[C@@H]4CC[C@@]3(C)[C@]1(C)CC2,10.9 µM,31.1 µM,2.71 µM,12.1 µM,5 µM,65.9 µM,3.63 µM,13.4 µM,10.2 µM,32.2 µM,5.53 µM,26.6 µM,11.8 µM,54 µM,6.89 µM,20 µM,4.52 µM,93.6 µM,13.5 µM,46.9 µM
CC(C)(C)OC(=O)N(CCCN(CCn1c2c(c3ccccc3c1=O)C(=O)c1ccccc1-2)C(=O)OC(C)(C)C)CCn1c2c(c3ccccc3c1=O)C(=O)c1ccccc1-2,> 50 µM,> 50 µM,22.7 µM,> 50 µM,> 50 µM,> 50 µM,> 50 µM,> 50 µM,> 50 µM,> 50 µM,49.7 µM,> 50 µM,28.2 µM,> 50 µM,> 50 µM,> 50 µM,2.07 µM,8.87 µM,15.2 µM,> 50 µM
Cn1cc(-c2csc(-c3cccc(F)c3)n2)c2cccnc21,12.5 µM,37.6 µM,14.2 µM,27.3 µM,14.2 µM,27.9 µM,15.3 µM,29.5 µM,16.8 µM,35.3 µM,17 µM,34.7 µM,17.3 µM,32.1 µM,17.6 µM,32.8 µM,13.5 µM,> 100 µM,15.5 µM,31.8 µM
N#C/C(C(=S)Nc1ccccc1)=C1/NN=C2c3ccccc3C(=O)NN21,35.3 µM,> 100 µM,29.2 µM,> 100 µM,29.2 µM,> 100 µM,19.3 µM,40.6 µM,29.5 µM,> 100 µM,26.3 µM,73.2 µM,35.3 µM,> 100 µM,25.3 µM,97.7 µM,19.5 µM,> 100 µM,32.1 µM,> 100 µM
Cc1cc(C2CCCCC2)n(O)c(=O)c1,2.4 µM,> 100 µM,1.02 µM,> 100 µM,5.27 µM,> 100 µM,1.39 µM,–,2.16 µM,> 100 µM,0.507 µM,–,1.27 µM,> 100 µM,4.07 µM,> 100 µM,0.66 µM,> 100 µM,1.13 µM,–
Cc1[nH]c(N=Nc2ccccc2)nc1N=Nc1ccccc1,3.05 µM,29.9 µM,3.12 µM,27.6 µM,4.57 µM,20.8 µM,2 µM,4.49 µM,5.25 µM,> 45.4 µM,2.37 µM,8.09 µM,2.45 µM,11.5 µM,4.5 µM,> 41 µM,0.418 µM,–,2.83 µM,> 37.5 µM
